The values below come from patent publication US20240342186A1, “PYRIDINE DERIVATIVES WITH N-LINKED CYCLIC SUBSTITUENTS AS cGAS INHIBITORS” (Boehringer Ingelheim International GmbH, priority 2021, published 2024).

The test system of assay [1] is cellular cGAS activity in baculovirus-stimulated THP1-Dual cells (IRF dependent Lucia luciferase reporter). As to the kind of experiment: Human cGAS cell assay: inhibition of IFN induction in virus-stimulated THP1 cells (THP1(vir) IC50). It is filed as cell-based. The settings on record: Homo sapiens, THP1-Dual. A digest of the protocol: (§1)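 THP1-Dual cells with IRF-dependent Lucia luciferase reporter, stimulated by empty baculovirus (dsDNA delivery activating cGAS) or, for the counter assay, directly by cGAMP. 5000 cells/well, 8 concentrations from 10 μM top, 1% DMSO, 18 h at 37 °C; luminescence read, IC50 by 4-parameter logistic fit versus unstimulated low control.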

For assay [2], the target named is cGAS (Homo sapiens (Human), UniProt Q8N884). As to the kind of experiment: Human cGAS enzyme assay (hcGAS IC50, in vitro), cGAMP formation by RapidFire MS.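 Further: enzyme activated by 45 bp dsDNA with GTP and ATP (30 µM each), 60 min compound pre-incubation then 90 min reaction, cGAMP relative to cyclic-di-GMP internal standard, 8-point dilutions up to 10 µM.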 It is filed as biochemical.
Assay [3] has as its system cellular cGAS activity in dsDNA-stimulated human whole blood. As to the kind of experiment: Human whole blood assay (hWB IC50): IFNα2α production after dsDNA transfection. It is filed as cell-based. An outline of the steps: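 Citrated blood from healthy donors preincubated 60 min at room temperature with compound (top 10 µM, ~1:5 steps, 0.1% DMSO), then transfected with dsDNA/Fugene and incubated 22 h at 37 °C. Plasma IFNα2α measured by MSD immunoassay; IC50 from 4-parameter fit of % control (stimulated vs unstimulated).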

The test system of assay [4] is cGAMP-stimulated THP1-Dual cells (pathway directly downstream of cGAS). Put plainly: cGAMP stimulated counter cell assay: inhibition of IFN induction in cGAMP-stimulated THP1 cells (THP1(cGAMP) IC50). It is filed as cell-based, human. The settings on record: for IC50: Homo sapiens, THP1-Dual, read-out: THP1(cGAMP) IC50 (converted); for Ratio THP1(cGAMP) IC50 / THP1(vir) IC50: selectivity for cGAS inhibition. An outline of the steps: as §1

The mark [5] stands for this setting: inhibition of IFN induction in virus-stimulated THP1 cells, read-out: THP1(vir) IC50.
The mark [6] stands for this setting: biochemical (in vitro) cGAS inhibition.
Setting [7] is: inhibition of IFN induction in dsDNA-stimulated human whole blood.
Setting [8] is: inhibition of IFN induction in cGAMP-stimulated THP1 cells.

Read-outs that look alike come from different tables or passages of the source.

Sequence of cGAS (Q8N884 whole entry): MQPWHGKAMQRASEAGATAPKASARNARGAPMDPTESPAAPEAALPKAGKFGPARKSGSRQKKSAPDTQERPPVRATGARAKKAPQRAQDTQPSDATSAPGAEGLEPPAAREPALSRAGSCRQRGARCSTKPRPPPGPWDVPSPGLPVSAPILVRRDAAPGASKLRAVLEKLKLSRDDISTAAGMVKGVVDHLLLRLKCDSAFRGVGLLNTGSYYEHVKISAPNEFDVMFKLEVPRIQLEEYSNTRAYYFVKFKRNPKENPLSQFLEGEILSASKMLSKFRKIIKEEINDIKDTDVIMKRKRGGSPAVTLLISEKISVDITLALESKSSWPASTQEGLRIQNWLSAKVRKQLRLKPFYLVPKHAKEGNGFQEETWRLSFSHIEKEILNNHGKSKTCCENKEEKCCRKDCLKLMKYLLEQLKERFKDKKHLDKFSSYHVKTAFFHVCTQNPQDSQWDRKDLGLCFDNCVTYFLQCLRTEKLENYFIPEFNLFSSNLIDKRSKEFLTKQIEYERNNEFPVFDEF

One may read the IC50 as the concentration that inhibits the measured activity by half. In the case of `C#Cc1cnc(O[C@H]2C[C@@H](C(=O)O)N(c3nc(Cl)nc4c3oc3ccccc34)C2)c(N2CCOC3(COC3)[C@@H]2C)c1` [Example 2.05], the IC50 is 4 nM in assay [1] (setting [5]), 2 nM in assay [2] (setting [6]), 8 nM in assay [3] (setting [7]) and 10800 nM in assay [4] (setting [8]). The “Ratio THP1(cGAMP) IC50 / THP1(vir) IC50” value in assay [4] is 3018.

For the molecule `CC#Cc1cnc(O[C@H]2C[C@@H](C(=O)O)N(c3nc(C(F)(F)F)nc4c3oc3ccccc34)C2)c(N2CCOC3(CC3)[C@@H]2C)c1` [Example 6.03], the IC50 in assay [1] (setting [5]) is 5 nM; in assay [2] (setting [6]) it was 7 nM; in assay [3] (setting [7]), 95 nM; in assay [4] (setting [8]) it was 10900 nM. In assay [4], the “Ratio THP1(cGAMP) IC50 / THP1(vir) IC50” value is given as 2273.

Take `C#Cc1cnc(O[C@H]2C[C@@H](C(=O)O)N(c3nc(C)nc4c3oc3ccccc34)C2)c(N2CCOC[C@@H]2C)c1` [Example 1.29]: the IC50 in assay [1] (setting [5]) is 296 nM; in assay [2] (setting [6]), 4 nM; in assay [3] (setting [7]), 61 nM; in assay [4] (setting [8]) it was over 16600 nM. In assay [4], the “Ratio THP1(cGAMP) IC50 / THP1(vir) IC50” value is over 56.

`C[C@@H]1N(c2cc(-c3cccc(CO)c3)cnc2O[C@H]2C[C@@H](C(=O)O)N(c3nc(C(F)F)nc4c3oc3ccccc34)C2)CCOC12COC2` [Example 3.11]: the IC50 is 5 nM in assay [1] (setting [5]), 4 nM in assay [2] (setting [6]), 11 nM in assay [3] (setting [7]) and 5290 nM in assay [4] (setting [8]). Also, the “Ratio THP1(cGAMP) IC50 / THP1(vir) IC50” value in assay [4] is recorded as 1149.

With `COC(=O)[C@@H]1C[C@H](Oc2ncc(Br)cc2N2CCOC3(COC3)[C@@H]2C)CN1c1nc(C(F)(F)F)nc2c1oc1ccccc12` [Example P02], the IC50 in assay [1] (read-out: THP1(vir) IC50, virus-stimulated THP1 cells, IFN induction) is 444 nM; in assay [2] (biochemical (in vitro), human cGAS, 45 bp dsDNA, GTP/ATP), over 9950 nM; in assay [3] (dsDNA-stimulated human whole blood, IFN induction), 5330 nM; in assay [4] (cGAMP-stimulated THP1 cells, counter assay) it was 17100 nM.

For `COc1c(-c2cnc(O[C@H]3C[C@@H](C(=O)O)N(c4nc(C(F)F)nc5c4oc4ccccc45)C3)c(N3CCOC4(COC4)[C@@H]3C)c2)ccnc1N(C)C` [Example 4.02], the concentration for half-maximal inhibition (IC50) in assay [1] (setting [5]) was 17 nM; in assay [2] (setting [6]), 12 nM; in assay [3] (setting [7]), 42 nM; in assay [4] (setting [8]) it was 12600 nM. Further, the “Ratio THP1(cGAMP) IC50 / THP1(vir) IC50” value in assay [4] is 735.

As for `CC(=O)Nc1cc(-c2cnc(O[C@H]3C[C@@H](C(=O)O)N(c4nc(C(F)F)nc5c4oc4ccccc45)C3)c(N3CCOC4(COC4)[C@@H]3C)c2)ccn1` [Example 3.15], the IC50 in assay [1] (setting [5]) was 57 nM; in assay [2] (setting [6]), 10 nM; in assay [3] (setting [7]), 22 nM; in assay [4] (setting [8]), 19900 nM. Further, the “Ratio THP1(cGAMP) IC50 / THP1(vir) IC50” value in assay [4] stood at 348.

`CNc1cncc(-c2cnc(O[C@H]3C[C@@H](C(=O)O)N(c4nc(C(F)(F)F)nc5c4oc4ccccc45)C3)c(N3CCOC4(COC4)[C@@H]3C)c2)c1` [Example 3.18]: the IC50 in assay [1] (setting [5]) is 7 nM; in assay [2] (setting [6]), 3 nM; in assay [3] (setting [7]), 44 nM; in assay [4] (setting [8]), 4760 nM. In addition, in assay [4], the “Ratio THP1(cGAMP) IC50 / THP1(vir) IC50” value is on record as 645.

Turning to `C#Cc1cnc(O[C@H]2C[C@@H](C(=O)O)N(c3nc(C(F)F)nc4c3oc3ccccc34)C2)c(N2CCCC3(COC3)[C@@H]2C)c1` [Example 1.23], the IC50 is 10 nM in assay [1] (setting [5]), 4 nM in assay [2] (setting [6]), 12 nM in assay [3] (setting [7]) and 10900 nM in assay [4] (setting [8]). In addition, the “Ratio THP1(cGAMP) IC50 / THP1(vir) IC50” value in assay [4] is 1134.

As for `C#Cc1cnc(O[C@H]2C[C@@H](C(=O)O)N(c3nc(CCl)nc4c3oc3ccccc34)C2)c(N2CCOC3(COC3)[C@@H]2C)c1` [Example 2.10], the IC50 in assay [1] (setting [5]) is 5 nM; in assay [2] (setting [6]) it was 3 nM; in assay [3] (setting [7]), 24 nM; in assay [4] (setting [8]), 2750 nM. For the same molecule, the “Ratio THP1(cGAMP) IC50 / THP1(vir) IC50” value in assay [4] was 533.

On to `COc1cc(-c2cnc(O[C@H]3C[C@@H](C(=O)O)N(c4nc(C(F)(F)F)nc5c4oc4ccccc45)C3)c(N3CCOC[C@@H]3C)c2)ccn1` [Example 3.05], for which the IC50 was 523 nM in assay [1] (setting [5]), 14 nM in assay [2] (setting [6]), 1830 nM in assay [3] (setting [7]) and 6710 nM in assay [4] (setting [8]). The “Ratio THP1(cGAMP) IC50 / THP1(vir) IC50” value in assay [4] stood at 13.

Consider `C[C@@H]1N(c2cc(-c3ccc(C#N)nc3)cnc2O[C@H]2C[C@@H](C(=O)O)N(c3nc(C(F)(F)F)nc4c3oc3ccccc34)C2)CCOC12COC2` [Example 3.23], for which the IC50 in assay [1] (setting [5]) is 10 nM; in assay [2] (setting [6]), 8 nM; in assay [3] (setting [7]) it was 70 nM; in assay [4] (setting [8]) it was 10000 nM. Further, in assay [4], the “Ratio THP1(cGAMP) IC50 / THP1(vir) IC50” value is 1029.

Consider `C[C@@H]1N(c2cc(-n3cccn3)cnc2O[C@H]2C[C@@H](C(=O)O)N(c3nc(C(F)(F)F)nc4c3oc3ccccc34)C2)CCOC12COC2` [Example 10.01, (2S,4S)-4-({3-[(95)-9-methyl-2,5-dioxa-8-azaspiro[3.5]nonan-8-yl]-5-(1H-pyrazol-1-yl)pyridin-2-yl}oxy)-1-[4-(trifluoromethyl)-8-oxa-3,5-diazatricyclo[7.4.0.0^2,7]trideca-1(9),2(7),3,5,10,12-hexaen-6-yl]pyrrolidine-2-carboxylic acid], for which the IC50 in assay [1] (setting [5]) was 10 nM; in assay [2] (setting [6]), 5 nM; in assay [3] (setting [7]), 47 nM; in assay [4] (setting [8]), over 10000 nM. The “Ratio THP1(cGAMP) IC50 / THP1(vir) IC50” value in assay [4] is on record as over 1000.

With `Cc1noc(C)c1-c1cnc(O[C@H]2C[C@@H](C(=O)O)N(c3nc(C(F)(F)F)nc4c3oc3ccccc34)C2)c(N2CCOC3(COC3)[C@@H]2C)c1` [Example 3.27], the IC50 in assay [1] (setting [5]) is 326 nM; in assay [2] (setting [6]), 21 nM; in assay [3] (setting [7]), 1860 nM; in assay [4] (setting [8]), 12500 nM. Also, the “Ratio THP1(cGAMP) IC50 / THP1(vir) IC50” value in assay [4] worked out at 38.

Regarding `C#Cc1cnc(O[C@H]2C[C@@H](C(=O)O)N(c3nc(C(F)(F)Cl)nc4c3oc3ccccc34)C2)c(N2CCOC3(COC3)[C@@H]2C)c1` [Example 1.16], the IC50 is 7 nM in assay [1] (setting [5]), 3 nM in assay [2] (setting [6]), 23 nM in assay [3] (setting [7]) and 15000 nM in assay [4] (setting [8]). In addition, the “Ratio THP1(cGAMP) IC50 / THP1(vir) IC50” value in assay [4] was 2209.

In the case of `COc1csc(-c2cnc(O[C@H]3C[C@@H](C(=O)O)N(c4nc(C(F)(F)F)nc5c4oc4ccccc45)C3)c(N3CCOC4(COC4)[C@@H]3C)c2)n1` [Example 7.02], the IC50 was 1 nM in assay [1] (setting [5]), 14 nM in assay [2] (setting [6]), 13 nM in assay [3] (setting [7]) and 8320 nM in assay [4] (setting [8]). In assay [4], the “Ratio THP1(cGAMP) IC50 / THP1(vir) IC50” value is reported as 7533.

As for `C[C@@H]1N(c2cc(Cl)cnc2O[C@H]2C[C@@H](C(=O)O)N(c3nc(C(F)(F)F)nc4c3oc3ccccc34)C2)CCOC12COC2` [Example 1.13], the IC50 in assay [1] (setting [5]) is 40 nM; in assay [2] (setting [6]), 4 nM; in assay [3] (setting [7]) it was 102 nM; in assay [4] (setting [8]) it was 16400 nM. The “Ratio THP1(cGAMP) IC50 / THP1(vir) IC50” value in assay [4] is 413.

`C[C@H]1COC[C@H](C)N1c1cc(Br)cnc1O[C@H]1C[C@@H](C(=O)O)N(c2nc(C(F)F)nc3c2oc2ccccc23)C1` [Example 1.26]: the IC50 is 583 nM in assay [1] (setting [5]), 10 nM in assay [2] (setting [6]), 475 nM in assay [3] (setting [7]) and 9930 nM in assay [4] (setting [8]). In addition, the “Ratio THP1(cGAMP) IC50 / THP1(vir) IC50” value in assay [4] is listed as 17.

Consider `C[C@@H]1N(c2cc(-c3cccc(N(C)C)c3)cnc2O[C@H]2C[C@@H](C(=O)O)N(c3nc(C(F)(F)F)nc4c3oc3ccccc34)C2)CCOC12COC2` [Example 3.17], for which the IC50 in assay [1] (setting [5]) was 11 nM; in assay [2] (setting [6]), 20 nM; in assay [3] (setting [7]), 43 nM; in assay [4] (setting [8]) it was 16800 nM. Besides, in assay [4], the “Ratio THP1(cGAMP) IC50 / THP1(vir) IC50” value worked out at 1542.
